Columns and labels:
[1] = molecular target: T1, Serine/threonine-protein kinase TNNI3K (Homo sapiens, UniProt Q59H18); test: Inhibition of human myc-TNNI3K expressed in HEK-MSR2 cells assessed as reduction in TNNI3K autophosphorylation preincubated for 30 mins followed by pervanadate addition and measured after 20 mins by DELFIA; format: cell-based
T1 sequence (Q59H18 whole entry): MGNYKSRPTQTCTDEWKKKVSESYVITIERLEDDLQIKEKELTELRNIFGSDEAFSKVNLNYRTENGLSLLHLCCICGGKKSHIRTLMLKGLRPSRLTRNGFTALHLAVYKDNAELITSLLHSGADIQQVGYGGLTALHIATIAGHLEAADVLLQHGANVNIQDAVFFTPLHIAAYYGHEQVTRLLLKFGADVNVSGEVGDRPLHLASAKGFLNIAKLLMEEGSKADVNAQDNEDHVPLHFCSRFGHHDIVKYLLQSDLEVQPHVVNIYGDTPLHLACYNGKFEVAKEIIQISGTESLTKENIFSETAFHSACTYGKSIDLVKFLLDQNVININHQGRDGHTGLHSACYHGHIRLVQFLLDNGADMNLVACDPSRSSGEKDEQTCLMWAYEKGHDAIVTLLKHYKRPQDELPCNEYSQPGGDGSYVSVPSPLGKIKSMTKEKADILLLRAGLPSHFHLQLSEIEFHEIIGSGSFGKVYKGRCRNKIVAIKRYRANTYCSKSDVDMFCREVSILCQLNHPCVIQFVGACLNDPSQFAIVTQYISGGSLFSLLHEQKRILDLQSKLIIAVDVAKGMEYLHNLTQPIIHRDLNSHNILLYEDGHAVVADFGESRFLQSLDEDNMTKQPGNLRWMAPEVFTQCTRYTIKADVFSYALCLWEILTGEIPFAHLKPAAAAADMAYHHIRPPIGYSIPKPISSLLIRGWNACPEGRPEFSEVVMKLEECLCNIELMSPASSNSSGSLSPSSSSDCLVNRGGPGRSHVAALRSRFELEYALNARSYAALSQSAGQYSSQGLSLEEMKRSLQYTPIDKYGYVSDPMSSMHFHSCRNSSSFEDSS

[2] = Half life in po dosed rat administered as cassette dose; format: ADME, organism-based; conditions: in vivo
[3] = Dose normalized AUC in po dosed rat administered as cassette dose; format: ADME, organism-based; conditions: in vivo
[4] = Permeability of compound incubated for 2 hrs by liquid chromatography analysis; format: ADME; conditions: read-out: permeability
[5] = molecular target: Mitogen-activated protein kinase 14 (Homo sapiens, UniProt Q16539); test: Inhibition of p38alpha (unknown origin)
Homo sapiens [6] = species on record: Homo sapiens; test: Selectivity index, ratio of IC50 for inhibition of VEGFR2 (unknown origin) to IC50 for inhibition of TNNI3K (unknown origin)
[7] = molecular target: T1, Serine/threonine-protein kinase TNNI3K; test: Inhibition of TNNI3K (unknown origin)
Homo sapiens [8] = species on record: Homo sapiens; test: Selectivity index, ratio of IC50 for inhibition of p38alpha (unknown origin) to IC50 for inhibition of TNNI3K (unknown origin)
[9] = molecular target: Serine/threonine-protein kinase B-raf (Homo sapiens, UniProt P15056); test: Inhibition of B-Raf (unknown origin)
[10] = molecular target: Vascular endothelial growth factor receptor 2 (Homo sapiens, UniProt P35968); test: Inhibition of GST-6His tagged VEGFR2 (unknown origin) using biotin-aminohexyl-EEEEYFELVAKKKK-NH2 peptide substrate incubated for 90 mins by HTRF assay
[11] = molecular target: T2, Serine/threonine-protein kinase TNNI3K (Mus musculus, UniProt Q5GIG6); test: Binding affinity to full length mouse His-MBP-TNNI3K assessed as off-rate constant in presence of rhodamine green labeled GW805818X by fluorescence competitive binding assay
T2 sequence (Q5GIG6 whole entry): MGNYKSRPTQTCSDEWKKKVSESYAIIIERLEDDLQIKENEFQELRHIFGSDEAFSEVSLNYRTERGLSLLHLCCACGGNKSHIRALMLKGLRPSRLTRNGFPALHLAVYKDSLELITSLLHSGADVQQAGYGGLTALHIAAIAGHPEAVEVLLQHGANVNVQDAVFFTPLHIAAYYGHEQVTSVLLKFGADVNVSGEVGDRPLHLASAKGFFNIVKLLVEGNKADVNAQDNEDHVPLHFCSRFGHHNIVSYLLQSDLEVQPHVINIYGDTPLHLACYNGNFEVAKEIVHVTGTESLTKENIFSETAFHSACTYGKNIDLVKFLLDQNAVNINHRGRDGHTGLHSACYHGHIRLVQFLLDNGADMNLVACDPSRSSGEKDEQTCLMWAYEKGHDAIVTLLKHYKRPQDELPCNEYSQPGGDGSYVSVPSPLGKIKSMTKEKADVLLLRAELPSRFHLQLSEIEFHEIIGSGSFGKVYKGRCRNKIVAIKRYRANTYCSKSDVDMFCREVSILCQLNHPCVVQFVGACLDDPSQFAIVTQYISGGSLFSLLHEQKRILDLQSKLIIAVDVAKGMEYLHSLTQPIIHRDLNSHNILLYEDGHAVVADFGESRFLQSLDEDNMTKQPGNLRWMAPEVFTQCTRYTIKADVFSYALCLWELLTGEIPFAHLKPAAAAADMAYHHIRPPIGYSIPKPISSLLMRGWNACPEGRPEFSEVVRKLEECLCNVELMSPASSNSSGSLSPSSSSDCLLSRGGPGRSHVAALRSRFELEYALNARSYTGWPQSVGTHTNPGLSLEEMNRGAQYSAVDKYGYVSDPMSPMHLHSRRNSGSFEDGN

[12] = molecular target: T1, Serine/threonine-protein kinase TNNI3K; test: Binding affinity to full length human His-MBP-TNNI3K assessed as off-rate constant in presence of rhodamine green labeled GW805818X by fluorescence competitive binding assay
[13] = molecular target: Voltage-gated inwardly rectifying potassium channel KCNH2 (Homo sapiens, UniProt Q12809); test: Inhibition of human ERG expressed in HEK293 cells; format: cell-based
[14] = molecular target: T3, Serine/threonine-protein kinase TNNI3K (Mus musculus) (UniProt Q5GIG6)
T3 sequence (whole entry): T2 sequence (Q5GIG6 whole entry)
Description: Binding affinity to full length mouse His-MBP-TNNI3K assessed as half life in presence of rhodamine green labeled GW805818X by fluorescence competitive binding assay

[15] = molecular target: T4, Serine/threonine-protein kinase TNNI3K (Homo sapiens) (UniProt Q59H18)
T4 sequence (whole entry): T1 sequence (Q59H18 whole entry)
Description: Binding affinity to full length human His-MBP-TNNI3K assessed as half life in presence of rhodamine green labeled GW805818X by fluorescence competitive binding assay

Sequence of Serine/threonine-protein kinase B-raf (P15056 whole entry): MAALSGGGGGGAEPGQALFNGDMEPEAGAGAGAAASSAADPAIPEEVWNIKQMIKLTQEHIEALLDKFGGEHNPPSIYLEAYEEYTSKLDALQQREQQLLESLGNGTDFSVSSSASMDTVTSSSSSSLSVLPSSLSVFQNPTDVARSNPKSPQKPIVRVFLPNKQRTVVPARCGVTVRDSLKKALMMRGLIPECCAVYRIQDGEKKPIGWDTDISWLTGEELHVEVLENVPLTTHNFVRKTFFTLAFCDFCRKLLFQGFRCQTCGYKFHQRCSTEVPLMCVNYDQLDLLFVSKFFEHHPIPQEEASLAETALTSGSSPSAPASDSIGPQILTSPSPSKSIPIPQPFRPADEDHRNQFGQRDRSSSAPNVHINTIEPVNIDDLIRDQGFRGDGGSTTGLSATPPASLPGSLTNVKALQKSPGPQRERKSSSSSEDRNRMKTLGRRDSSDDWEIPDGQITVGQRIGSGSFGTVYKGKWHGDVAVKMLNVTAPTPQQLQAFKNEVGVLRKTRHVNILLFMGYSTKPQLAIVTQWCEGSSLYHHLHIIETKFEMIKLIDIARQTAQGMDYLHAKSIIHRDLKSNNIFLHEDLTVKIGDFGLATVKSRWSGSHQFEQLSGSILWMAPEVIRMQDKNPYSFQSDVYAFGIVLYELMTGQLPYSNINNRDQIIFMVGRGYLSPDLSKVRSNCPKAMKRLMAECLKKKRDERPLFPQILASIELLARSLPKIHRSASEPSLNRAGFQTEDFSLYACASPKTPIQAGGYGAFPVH
Sequence of Vascular endothelial growth factor receptor 2 (P35968 whole entry): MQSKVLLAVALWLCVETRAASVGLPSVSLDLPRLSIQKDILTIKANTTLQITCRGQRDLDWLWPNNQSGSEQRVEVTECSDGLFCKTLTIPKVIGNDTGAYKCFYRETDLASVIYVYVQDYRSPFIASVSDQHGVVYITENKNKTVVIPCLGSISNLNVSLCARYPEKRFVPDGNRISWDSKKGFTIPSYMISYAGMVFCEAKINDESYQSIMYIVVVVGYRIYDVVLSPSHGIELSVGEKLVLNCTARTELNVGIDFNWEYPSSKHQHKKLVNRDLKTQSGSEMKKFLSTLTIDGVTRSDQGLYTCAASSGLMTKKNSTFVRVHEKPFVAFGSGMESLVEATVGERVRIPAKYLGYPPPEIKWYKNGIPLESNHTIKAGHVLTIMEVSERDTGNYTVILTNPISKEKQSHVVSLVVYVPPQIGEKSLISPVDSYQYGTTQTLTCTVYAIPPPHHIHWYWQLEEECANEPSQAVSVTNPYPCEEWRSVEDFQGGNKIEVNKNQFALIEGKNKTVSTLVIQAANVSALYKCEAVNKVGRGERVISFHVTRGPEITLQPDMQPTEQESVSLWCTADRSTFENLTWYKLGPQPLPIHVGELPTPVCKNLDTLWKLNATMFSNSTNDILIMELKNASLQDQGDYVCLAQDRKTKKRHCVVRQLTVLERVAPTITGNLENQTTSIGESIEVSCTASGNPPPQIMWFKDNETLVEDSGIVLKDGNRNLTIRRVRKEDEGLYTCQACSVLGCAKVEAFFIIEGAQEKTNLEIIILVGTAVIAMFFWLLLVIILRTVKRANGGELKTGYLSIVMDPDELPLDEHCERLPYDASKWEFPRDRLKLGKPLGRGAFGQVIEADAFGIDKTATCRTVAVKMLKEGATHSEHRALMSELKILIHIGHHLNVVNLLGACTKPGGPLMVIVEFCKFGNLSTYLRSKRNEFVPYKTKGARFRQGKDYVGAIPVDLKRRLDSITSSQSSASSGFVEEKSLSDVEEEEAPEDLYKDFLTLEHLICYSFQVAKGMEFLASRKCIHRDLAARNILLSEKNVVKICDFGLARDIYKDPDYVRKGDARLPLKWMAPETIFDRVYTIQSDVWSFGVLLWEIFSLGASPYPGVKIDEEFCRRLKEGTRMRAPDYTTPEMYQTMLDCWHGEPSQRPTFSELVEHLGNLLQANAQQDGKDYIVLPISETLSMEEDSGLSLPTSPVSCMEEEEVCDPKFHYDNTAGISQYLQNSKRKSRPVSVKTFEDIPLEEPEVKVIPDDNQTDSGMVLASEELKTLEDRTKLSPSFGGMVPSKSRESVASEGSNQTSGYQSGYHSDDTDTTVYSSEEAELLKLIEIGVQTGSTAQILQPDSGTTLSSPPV
Sequence of Mitogen-activated protein kinase 14 (Q16539 whole entry): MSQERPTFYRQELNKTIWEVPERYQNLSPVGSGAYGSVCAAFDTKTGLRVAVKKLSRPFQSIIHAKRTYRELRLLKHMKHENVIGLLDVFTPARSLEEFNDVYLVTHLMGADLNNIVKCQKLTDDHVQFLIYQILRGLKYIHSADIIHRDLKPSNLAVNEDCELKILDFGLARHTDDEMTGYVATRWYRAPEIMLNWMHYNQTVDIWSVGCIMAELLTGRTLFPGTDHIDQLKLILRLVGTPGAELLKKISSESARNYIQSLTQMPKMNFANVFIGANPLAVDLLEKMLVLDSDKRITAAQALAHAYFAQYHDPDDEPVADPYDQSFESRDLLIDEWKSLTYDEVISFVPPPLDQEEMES
Sequence of Voltage-gated inwardly rectifying potassium channel KCNH2 (Q12809 whole entry): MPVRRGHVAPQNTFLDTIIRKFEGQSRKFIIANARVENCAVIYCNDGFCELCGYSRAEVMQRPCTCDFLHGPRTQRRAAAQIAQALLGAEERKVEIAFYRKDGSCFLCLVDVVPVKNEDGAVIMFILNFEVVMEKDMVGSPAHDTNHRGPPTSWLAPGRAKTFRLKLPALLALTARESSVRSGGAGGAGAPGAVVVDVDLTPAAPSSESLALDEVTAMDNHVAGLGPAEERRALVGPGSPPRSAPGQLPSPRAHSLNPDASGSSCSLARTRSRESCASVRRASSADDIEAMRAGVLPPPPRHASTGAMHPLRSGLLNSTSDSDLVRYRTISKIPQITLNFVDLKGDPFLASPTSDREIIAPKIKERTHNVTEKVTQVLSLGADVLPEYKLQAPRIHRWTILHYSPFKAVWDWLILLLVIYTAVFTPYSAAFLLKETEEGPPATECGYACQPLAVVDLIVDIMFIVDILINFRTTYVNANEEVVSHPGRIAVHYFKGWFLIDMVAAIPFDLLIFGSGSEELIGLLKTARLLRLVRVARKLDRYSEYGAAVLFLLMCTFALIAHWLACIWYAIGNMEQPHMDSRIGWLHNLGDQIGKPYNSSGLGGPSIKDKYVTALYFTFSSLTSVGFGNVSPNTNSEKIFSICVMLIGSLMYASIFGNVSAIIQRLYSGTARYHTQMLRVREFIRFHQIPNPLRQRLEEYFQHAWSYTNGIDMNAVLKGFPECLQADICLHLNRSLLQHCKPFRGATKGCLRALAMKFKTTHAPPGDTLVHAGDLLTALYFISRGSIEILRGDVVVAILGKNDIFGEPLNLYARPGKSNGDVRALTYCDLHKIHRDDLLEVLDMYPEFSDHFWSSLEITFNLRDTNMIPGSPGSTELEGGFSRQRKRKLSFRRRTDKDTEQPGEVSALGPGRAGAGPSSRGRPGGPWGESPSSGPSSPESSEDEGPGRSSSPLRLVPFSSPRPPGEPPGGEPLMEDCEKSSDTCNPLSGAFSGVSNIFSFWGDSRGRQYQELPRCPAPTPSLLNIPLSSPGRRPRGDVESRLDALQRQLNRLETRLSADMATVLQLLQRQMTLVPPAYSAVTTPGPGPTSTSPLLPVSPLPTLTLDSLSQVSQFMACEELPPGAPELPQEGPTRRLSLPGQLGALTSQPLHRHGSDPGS

| SMILES | IC50 [1] [nM] | half-life [2] [h] | AUC/dose [3] [kg·h/L] | Papp at 2 h [4] [×10⁻⁶ cm/s] | IC50 [5] [nM] | Ratio IC50 (Homo sapiens [6]) | IC50 [7] [nM] | Ratio IC50 (Homo sapiens [8]) | IC50 [9] [nM] | IC50 [10] [nM] | Ki [11] [nM] | Ki [12] [nM] | IC50 [13] [nM] | T1/2 [14] [h] | T1/2 [15] [h] |
| --- | --- | --- | --- | --- | --- | --- | --- | --- | --- | --- | --- | --- | --- | --- | --- |
| CCc1cc(NC(=O)Nc2cccc(C(F)(F)F)c2)cc(Cl)c1Oc1cc(NC)ncn1 | 100 | 3.7 | 1.2 | 5.9 | 1600 | > 250 | ≤ 10 | > 160 | > 2000 | 2500 |  |  |  |  |  |
| Nc1cc(Oc2ccc(NC(=O)Nc3cccc(C(F)(F)F)c3)cc2)ncn1 | 16 | 3.2 | 0.4 | 24.5 | 1000 | 0.32 | 25 | 40 | 1600 | 7.9 |  |  |  |  |  |
| CNc1cc(Oc2c(C)cc(NC(=O)Nc3cccc(C(F)(F)F)c3)cc2C)ncn1 | 7.9 | 2.4 | 1.5 | 29.5 | 6300 | 40 |  | 250 | 2000 | 1000 |  |  |  |  |  |
| CCS(=O)(=O)c1ccc(S(=O)(=O)NC)cc1Nc1cc(Nc2ccc(Cl)cn2)ncn1 |  |  | 0.56 |  |  |  | ≤ 10 |  |  |  |  |  |  |  |  |
| CNc1cc(Oc2ccc(NC(=O)Nc3cccc(C(F)(F)F)c3)cc2)ncn1 | 20 | 3.2 | 3.8 | 23 | 1000 | 0.63 | 40 | 25 | 500 | 25 |  |  |  |  |  |
| CNS(=O)(=O)c1ccc(N(C)C)c(Nc2ncnc3cc(OC)c(OC)cc23)c1 |  |  | 0.18 |  |  |  |  |  | 1000 |  |  |  |  |  |  |
| CC(C)(O)CNc1cc(Oc2ccc(NC(=O)Nc3cccc(C(F)(F)F)c3)cc2)ncn1 | 50 | 3.7 | 2 | 21 | 630 | 8 | 40 | 16 | 1600 | 320 |  |  |  |  |  |
| CNc1cc(Oc2c(Cl)cc(NC(=O)Nc3cccc(C(F)(F)F)c3)cc2Cl)ncn1 | 100 | 5.4 | 3.8 | 7.4 | 800 | 40 | 10 | 80 | > 2000 | 400 | 13 | 0.54 | > 31600 | 0.417 | 1.3 |
| CNS(=O)(=O)c1ccc(N(C)C)c(Nc2ncnc3[nH]ccc23)c1 |  |  | 0.59 |  |  |  |  |  | 6 |  |  |  |  |  |  |
| O=C(Nc1ccc(Oc2cc(NCCO)ncn2)cc1)Nc1cccc(C(F)(F)F)c1 | 40 | 4.5 | 0.3 | 8.2 | 1000 | 2.5 | 32 | 31 | 1000 | 79 |  |  |  |  |  |
| CNC(=O)c1cc(Oc2ccc(NC(=O)Nc3ccc(Cl)c(C(F)(F)F)c3)cc2)ccn1 [SORAFENIB] |  | 6.8 | 5.8 | 11 |  |  |  |  |  |  |  |  |  |  |  |
| Cc1cc(Oc2ccc(NC(=O)Nc3cccc(C(F)(F)F)c3)cc2)ncn1 |  |  |  |  | 1000 | 0.4 | 160 | 6.3 | 1260 | 63 |  |  |  |  |  |
| CC(=O)Nc1cc(Oc2ccc(NC(=O)Nc3cccc(C(F)(F)F)c3)cc2)ncn1 |  |  |  |  | 79 | 0.07 | 20 | 4 | 32 | 1.3 |  |  |  |  |  |
| CNc1cc(Oc2ccc(NC(=O)Nc3cccc(C(C)F)c3)cc2)ncn1 (stereo not drawn) |  |  |  |  | 5000 | 1 | 79 | 63 | 1000 | 79 |  |  |  |  |  |
| CNc1cc(Oc2c(F)cc(NC(=O)Nc3cccc(C(F)(F)F)c3)cc2F)ncn1 |  |  |  |  | 500 | 2.5 | 20 | 25 | > 2000 | 50 |  |  |  |  |  |
| CNc1cc(Oc2ccc(NC(=O)Nc3cccc(C(F)(F)F)c3)c3ccccc23)ncn1 |  |  |  |  | 5 | 0.5 | 25 | 0.2 | 100 | 13 |  |  |  |  |  |
